Tests used:
human CB1 receptor = target: T1, human CB1 receptor (Homo sapiens, UniProt P21554); test: Radioligand binding assay at human CB1 receptor ([^3H]CP55940 displacement, Eurofins Discovery); details: for Ki: Cheng Prusoff from IC50, [^3H]CP55940 radioligand, read-out: hCB1 Ki; for times more active than (−)-trans-Δ^9-THCV against CB1 receptor: comparator Δ^9-THCV (Ki 75.4 nM, literature); for times more active than (−)-trans-Δ^9-THC against CB1 receptor: comparator Δ^9-THC (Ki=40 nM, literature)
T1 construct: Eurofins Discovery (contract assay)
T1 sequence (P21554 whole entry): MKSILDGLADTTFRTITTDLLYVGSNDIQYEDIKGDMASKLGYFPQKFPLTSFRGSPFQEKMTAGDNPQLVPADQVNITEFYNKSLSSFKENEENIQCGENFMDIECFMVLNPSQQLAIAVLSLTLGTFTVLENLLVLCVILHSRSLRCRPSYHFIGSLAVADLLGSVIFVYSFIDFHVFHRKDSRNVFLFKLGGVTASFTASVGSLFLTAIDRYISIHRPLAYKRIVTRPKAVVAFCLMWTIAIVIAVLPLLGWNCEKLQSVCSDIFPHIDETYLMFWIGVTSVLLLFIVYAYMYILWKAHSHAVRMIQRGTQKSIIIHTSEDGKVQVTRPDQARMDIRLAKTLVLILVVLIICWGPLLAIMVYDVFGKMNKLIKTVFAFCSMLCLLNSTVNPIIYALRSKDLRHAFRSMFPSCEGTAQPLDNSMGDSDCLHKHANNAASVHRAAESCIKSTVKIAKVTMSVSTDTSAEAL
Experimental: 2.2.4 Binding affinity at human CB1 and CB2 receptors. The binding affinity of (−)-trans-Δ^9-THCB against purified human CB1 and CB2 receptors was determined in a radioligand binding assay. The capability of the ligand to displace radiolabeled [^3H] […] Binding at CB1 and CB2 Receptors. The binding affinity of (−)-trans-Δ^9-THCB against human CB1 and CB2 receptors was determined in a radioligand binding assay performed by Eurofins Discovery. The compound was tested at ten concentrations, ranging from 1 nM to 30 μM, in duplicate. The compound binding was calculated as a % inhibition of the binding of a radioactively labeled ligand specific for each target. […] The results were expressed as a percent inhibition of control specific binding obtained in the presence of the tested compounds using eq. 1.
The IC50 values (concentration causing a half-maximal inhibition of control specific binding) were determined by non-linear regression analysis of the competition curves generated with mean replicate values (eq. 2)^55.
Where Y is the specific binding, A is the left asymptote of the curve, D is the right asymptote f the curve, C is the compound concentration, C50 is the IC50 value and nH is the slope factor. […] The inhibition constants (Ki) were calculated using the Cheng Prusoff equation: […]
3.1.4 Binding affinity at human CB1 and CB2 receptors. […] The binding affinity of (−)-trans-Δ^9-THCP against human CB1 and CB2 receptors was assessed by Eurofins Discovery using a radioligand binding assay. […] Eq. 1 was employed to calculate the percent inhibition of control specific binding obtained in the presence of the tested compounds.
A non-linear regression analysis of the competition curves generated with mean replicate values (eq. 2) was used to calculate the IC50 values (concentration causing a half-maximal inhibition of control specific binding)^51.
Where Y is the specific binding, A is the left asymptote of the curve, D is the right asymptote f the curve, C is the compound concentration, C50 is the IC50 value and nH is the slope factor. […] The inhibition constants (Ki) were determined using the Cheng Prusoff equation (eq. 3):
[formula] • where L is the concentration of the radioligand, and KD is the affinity of the radioligand for the receptor.

CD-1 mice = test: Formalin test in mice; format: in vivo; details: 3 mg/kg, i.p., 20 min before formalin; n=5
Experimental: Formalin test in mice. Male CD-1 mice 6-8 weeks (Envigo, Italy), were housed under controlled conditions (12 h light/12 h dark cycle; temperature 20-22 C; humidity 55-60%) with chow and tap water available ad libitum. All surgeries and experimental procedures were approved by the Animal Ethics Committee of University of Campania “L. Vanvitelli” (Naples). Animal care was in compliance with Italian (D.L. 116/92) and European Commission (O.J. of E.C. L358/1 18/12/86) regulations on the protection of laboratory animals. All efforts were made to minimize animal suffering and to reduce the number of animals used. All the experiments were performed in a randomized manner by the same operator blind to pharmacological treatments. Mice weighing 28-32 g were used after 1 week-acclimation period and received formalin (1.25% in saline, 30 μL) in the dorsal surface of one side of the hind-paw. Each mouse, randomly assigned to one of the experimental groups (n=5), was placed in a plexiglass cage and allowed to move freely for 15-20 min. A mirror was placed at a 45° angle under the cage to allow full view of the hind-paws. Lifting, favoring, licking, shaking and flinching of the injected paw were recorded as nocifensive behavior.^61 The total time of the nociceptive response was measured every 5 min for 60 minutes and expressed in min (mean±SEM). Mice received vehicle (0.5% DMSO in saline) or different doses of Δ^9-THCB (2, 3 and 5 mg/kg, i.p.) 20 min before formalin injection alone or in combination with AM251 (0.5 mg/kg, i.p.) or AM630 (1 mg/kg, i.p.). The antagonists were administered 10 min before drugs injection.
Statistics for in vivo experiments. Data are represented as means±standard error of the mean (S.E.M). Statistical analysis of the data was performed by analysis of variance two-way ANOVA followed by Bonferroni post hoc or Dunnett's multiple comparison test. All statistical analyses were performed by using GraphPAD software (San Diego, California). Differences were considered significant at p<0.05.

C57BL6/J mice = test: Tetrad: bar test (catalepsy); format: in vivo; details: mean±SEM
Experimental: Mice (n=4) were treated with Δ^9-THCB (10 and 20 mg/kg) or vehicle (0.9% saline and 0.05% DMSO) by intraperitoneal (i.p.) administration. Mice were evaluated for hypomotility (open field test), hypothermia (body temperature test), antinociceptive (hot plate test), and cataleptic effects (bar test), using the tetrad tests as described in the protocol by Metna-Laurent M. et al.^62 Statistical analysis was performed using the Kruskall-Wallis test and Dunn's post hoc tests.
Bar test. The bar used was a 40 cm long and 0.4 cm wide in diameter glass rod, which was horizontally elevated by 5 cm above the surface. Both forelimbs of the mouse were positioned on the bar and its hind legs on the floor of the cage, ensuring that the animal was not lying down on the floor. The chronometer was stopped when the mouse descended from the bar (i.e., when the two forepaws touched the floor) or after the 10 min cut-off time. Catalepsy was measured as the time duration each mouse held the bar by both his forelimbs (latency for moving in seconds).
Male C57BL6/J mice (7 weeks old; n=5) were treated with Δ^9-THCP (10, 5 and 2.5 mg/kg) or vehicle (1:1:18; ethanol:Kolliphor EL:0.9% saline) by i.p. administration. Mice were evaluated for hypomotility (open field test), hypothermia (body temperature), antinociceptive (hot plate test), and cataleptic (bar test) effects, using the tetrad tests^58. Statistical analysis was performed using the Kruskall-Wallis test and Dunn's post hoc tests.
Bar test. The bar test was used for the evaluation of catalepsy. Bar was a 40 cm in length and 0.4 cm in diameter glass rod, which was horizontally elevated by 5 cm above the surface. Both forelimbs of mice were positioned on the bar and its hind legs on the floor of the cage, ensuring that the mouse was not lying down on the floor. The chronometer was stopped when the mouse descends from the bar (i.e., when the two forepaws touched the floor) or when 10 min have elapsed (i.e., cut-off time). Catalepsy was measured as the time duration each mouse held the elevated bar by both his forelimbs (latency for moving in seconds).

Structure (SMILES) | Ki (human CB1 receptor) [nM] | IC50 (human CB1 receptor; displacement of [^3H]CP55940, ten concentrations 1 nM to 30 μM, duplicate, SD within ±10%, read-out: hCB1 IC50) [nM] | times more active than (−)-trans-Δ^9-THCV against CB1 receptor (human CB1 receptor; ratio of Ki) | nociceptive response in formalin test (first phase 0-7 min, second phase 15-60 min) (CD-1 mice) | bar test: latency for moving from the catalepsy bar (C57BL6/J mice; Δ^9-THCB 10 mg/kg i.p., n=4, vehicle 3.50) [s] | bar test: latency for moving from the catalepsy bar (C57BL6/J mice; Δ^9-THCB 20 mg/kg i.p., n=4, vehicle 3.50) [s] | binding affinity to CB1 among the compounds (in words) (human CB1 receptor; comparison of alkyl chain homologues) | times more active than (−)-trans-Δ^9-THC against CB1 receptor (human CB1 receptor; ratio of Ki) | times more active than (−)-trans-Δ^9-THC against CB1 receptor (human CB1 receptor; ratio of Ki, listed as (−)-trans-Δ^9-THCP) [times] | times more active than (−)-trans-Δ^9-THCB against CB1 receptor (human CB1 receptor; ratio of Ki, comparator Δ^9-THCB (Ki 15 nM)) [times] | bar test: latency for moving from the catalepsy bar (C57BL6/J mice; Δ^9-THCP 2.5 mg/kg i.p., 10 min cut-off, n=5, vehicle 15.20) [s] | bar test: latency for moving from the catalepsy bar (C57BL6/J mice; Δ^9-THCP 5 mg/kg i.p., 10 min cut-off, n=5, vehicle 15.20) [s] | bar test: latency for moving from the catalepsy bar (C57BL6/J mice; Δ^9-THCP 10 mg/kg i.p., 10 min cut-off, n=5, vehicle 15.20) [s]
CCCCc1cc(O)c2c(c1)OC(C)(C)[C@@H]1CCC(C)=C[C@@H]21 [Δ^9-THCB, (6aR,10aR)-3-butyl-6,6,9-trimethyl-6a,7,8,10a-tetrahydro-6H-benzo[c]chromen-1-ol] | 15 | 28 | five times more active | reduced both first and second phase of formalin test | 3.0 | 13.0 | – | – | – | – | – | – | –
CCCCCCCc1cc(O)c2c(c1)OC(C)(C)[C@@H]1CCC(C)=C[C@@H]21 [Δ^9-THCP, (6aR,10aR)-3-heptyl-6,6,9-trimethyl-6a,7,8,10a-tetrahydro-6H-benzo[c]chromen-1-ol] | 1.2 | – | 63 times | – | – | – | highest binding affinity to CB1 | more than thirty-fold higher | 33 | 13 | 346.1 | 493.4 | 484.5
